Reference: publication PMC6399351, “Cationic Intrinsically Disordered Antimicrobial Peptides (CIDAMPs) Represent a New Paradigm of Innate Defense with a Potential for Novel Anti-Infectives” (Scientific Reports, 2019)
Values after ≈ are worked out from the molar mass of the structure shown. Where two headings read alike, the source gives them in different places. Square brackets hold non-standard residues; d marks the D form. Ends that are not written are not given here. Peptide text beside a SMILES is read from it. * marks the point of attachment. Palmitoyl = CCCCCCCCCCCCCCCC(=O)*; Orn = NCCC[C@H](N)C(=O)O; Dab = NCC[C@H](N)C(=O)O; Dap = NC[C@H](N)C(=O)O

Key:
[1] = test system: Staphylococcus aureus ATCC 43300; conditions: MRSA; CLSI, Mueller–Hinton broth, 5 × 10^5 CFU/mL, 18 h 37 °C, by CO-ADD
[2] = test system: Klebsiella pneumonia ATCC 700603; conditions: MDR strain; CLSI, Mueller–Hinton broth, 5 × 10^5 CFU/mL, 18 h 37 °C, by CO-ADD
[3] = test system: Pseudomonas aeruginosa ATCC 27853; assay: CO-ADD MIC, broth microdilution (CLSI); type: cell-based; conditions: Mueller–Hinton broth, 5 × 10^5 CFU/mL, 18 h 37 °C, by CO-ADD
Source text: (§1) They were defined as the lowest peptide
(§2) Further details of the screening

[4] = test system: Acinetobacter baumannii ATCC 19606; assay: CO-ADD MIC, broth microdilution (CLSI); type: cell-based; conditions: Mueller–Hinton broth, 5 × 10^5 CFU/mL, 18 h 37 °C, by CO-ADD
Source text: as §1, §2

[5] = test system: Candida albicans ATCC 90028; assay: CO-ADD MIC, antifungal assay (CLSI); type: cell-based; conditions: Yeast Nitrogen Base broth, 24 h 35 °C, by CO-ADD
Experimental: (§3) Fungi strains were cultured for 3 days on Yeast Extract-Peptone Dextrose (YPD) agar at 30 °C. A yeast suspension of 1 × 10^6 to 5 × 10^6 cells/mL (as determined by OD530) was prepared from five colonies. These stock suspensions were diluted with Yeast Nitrogen Base (YNB) broth to a final concentration of 2.5 × 10^3 CFU/mL. […] Plates were covered and incubated at 35 °C for 24 h without shaking.

[6] = test system: Cryptococcus neoformans ATCC 208821; assay: CO-ADD MIC, antifungal assay (CLSI); type: cell-based; conditions: Yeast Nitrogen Base broth, 24 h 35 °C, by CO-ADD
Experimental: as §3

S. aureus ATCC 6538 = conditions: for LD90 / LD100 / LD99 (concentration of peptide which kills 99.0% of inoculum): CFU assay
E. coli ATCC 25922 = assay: CO-ADD MIC, broth microdilution (CLSI); type: cell-based, Escherichia coli; conditions: Mueller–Hinton broth, 5 × 10^5 CFU/mL, 18 h 37 °C, by CO-ADD
Source text: as §1, §2

P. aeruginosa ATCC 10145 = conditions: CFU assay, 10 mM NaP, pH 5.5, 0.25% glucose
[7] = 10 mM NaP, pH 5.5, 0.25% glucose
[8] = 10 mM NaP, pH 7.0, 0.25% glucose
[9] = 10 mM NaP, pH 7.2, 0.25% glucose

Row | Compound | Minimal inhibitory concentration (MIC) [1] [µg/mL] | Minimal inhibitory concentration (MIC) [2] [µg/mL] | Minimal inhibitory concentration (MIC) [3] [µg/mL] | Minimal inhibitory concentration (MIC) [4] [µg/mL] | Minimal inhibitory concentration (MIC) [5] [µg/mL] | Minimal inhibitory concentration (MIC) [6] [µg/mL] | LD90 (S. aureus ATCC 6538; [7]) [µg/mL] | LD90 (S. aureus ATCC 6538; value in molar units) [nM] | Minimal inhibitory concentration (MIC) (E. coli ATCC 25922) [µg/mL] | LD90 (P. aeruginosa ATCC 10145) [µg/mL] | LD100 (P. aeruginosa ATCC 10145) [µg/mL] | LD100 (S. aureus ATCC 6538; [7]) [µg/mL] | LD90 (S. aureus ATCC 6538; [8]) [µg/mL] | LD100 (S. aureus ATCC 6538; [8]) [µg/mL] | S. aureus ATCC 6538-cidal activity (S. aureus ATCC 6538; pH 7.5, at concentrations >8 µM and <0.1 µM (antibiotic paradox)) | LD99 (concentration of peptide which kills 99.0% of inoculum) (S. aureus ATCC 6538; [7]) [µg/mL] | LD90 (S. aureus ATCC 6538; [9]) [µg/mL] | LD100 (S. aureus ATCC 6538; [9]) [µg/mL]
1 | N=C(N)NCCC[C@H](NC(=O)[C@H](CCCNC(=N)N)NC(=O)[C@H](CS)NC(=O)[C@H](CCCNC(=N)N)NC(=O)[C@H](Cc1c[nH]cn1)NC(=O)[C@H](CO)NC(=O)[C@H](CCCNC(=N)N)NC(=O)[C@H](CS)NC(=O)[C@H](CS)NC(=O)[C@H](CCCNC(=N)N)NC(=O)[C@H](Cc1c[nH]cn1)NC(=O)[C@H](Cc1c[nH]cn1)NC(=O)[C@@H](N)CO)C(=O)O [LCE-3B56-68] (H-SHHRCCRSHRCRR-OH) | 32 (≈ 18.9 µM) | >32 | >32 | >32 | >32 | 8 (≈ 4.72 µM) | 0.075 | 44 | >32 |  |  |  |  |  |  |  |  | 
2 | CCCCCCCCCCCCCCCC(=O)NCC(=O)N[C@@H](CCN)C(=O)NCC(=O)N[C@@H](CCN)C(=O)O [Pal-G-Dab4] (Palmitoyl-G[Dab]G[Dab]-OH) | 32 (≈ 56.1 µM) | >32 | >32 | 32 (≈ 56.1 µM) | >32 | 16 (≈ 28 µM) | 4.7 |  | >32 |  |  |  |  |  |  |  |  | 
3 | CCCCCCCCCCCCCCCC(=O)NCC(=O)N[C@@H](CN)C(=O)NCC(=O)N[C@@H](CN)C(=O)O [Pal-G-Dap4] (Palmitoyl-G[Dap]G[Dap]-OH) | 8 (≈ 14.7 µM) | >32 | >32 | >32 | 8 (≈ 14.7 µM) | 1 (≈ 1.84 µM) | 2.35 |  | >32 |  |  |  |  |  |  |  |  | 
4 | CCCCCCCCCCCCCCCC(=O)NCC(=O)N[C@@H](Cc1c[nH]cn1)C(=O)N[C@@H](Cc1c[nH]cn1)C(=O)NCC(=O)NCC(=O)N[C@@H](Cc1c[nH]cn1)C(=O)NCC(=O)NCC(=O)N[C@@H](Cc1c[nH]cn1)C(=O)NCC(=O)N[C@@H](Cc1c[nH]cn1)C(=O)NCC(=O)N[C@@H](Cc1c[nH]cn1)C(=O)O [Pal-GH13] (Palmitoyl-GHHGGHGGHGHGH-OH; C-terminus assumed) |  |  |  |  |  |  | 0.3 |  |  | 0.075 | 0.3 | 300 | 0.3 | >300 | complete loss of bactericidal activity |  |  | 
5 | CCCCCCCCCCCCCCCC(=O)NCC(=O)N[C@@H](CCCCN)C(=O)NCC(=O)N[C@@H](CCCCN)C(=O)O [Pal-GK4] (Palmitoyl-GKGK-OH; C-terminus assumed) |  |  |  |  |  |  | 4.7 |  |  |  | 9.375 | 9.375 |  |  |  |  |  | 
6 | CCCCCCCCCCCCCCCC(=O)NCC(=O)N[C@@H](CCCN)C(=O)NCC(=O)N[C@@H](CCCN)C(=O)O [Pal-GO4] (Palmitoyl-G[Orn]G[Orn]-OH; C-terminus assumed) |  |  |  |  |  |  | 9.38 |  |  | 2.35 | 18.75 |  |  |  |  |  |  | 
7 | CCCCCCCCCCCCCCCC(=O)NCC(=O)N[C@@H](CCCNC(=N)N)C(=O)NCC(=O)N[C@@H](CCCNC(=N)N)C(=O)O [Pal-GR4] (Palmitoyl-GRGR-OH) | 8 (≈ 11.7 µM) | >32 | >32 | >32 | 8 (≈ 11.7 µM) | 8 (≈ 11.7 µM) | 2.35 | 3400 | >32 |  |  |  |  |  |  | 4.7 |  | 
8 | CCCCCCCCCCCCCCCC(=O)NCC(=O)N[C@@H](CCCNC(=N)N)C(=O)N[C@@H](CCCNC(=N)N)C(=O)NCC(=O)NCC(=O)N[C@@H](CCCNC(=N)N)C(=O)O [Pal-GR6] (Palmitoyl-GRRGGR-OH) | 16 (≈ 17.9 µM) | >32 | >32 | >32 | >32 | 16 (≈ 17.9 µM) | 2.35 |  | >32 |  |  |  |  |  |  | 4.7 |  | 
9 | CCCCCCCCCCCCCCCC(=O)NCC(=O)N[C@@H](CCCNC(=N)N)C(=O)N[C@@H](CCCNC(=N)N)C(=O)NCC(=O)NCC(=O)N[C@@H](CCCNC(=N)N)C(=O)NCC(=O)NCC(=O)N[C@@H](CCCNC(=N)N)C(=O)O [Pal-GR9] (Palmitoyl-GRRGGRGGR-OH) | 8 (≈ 6.86 µM) | >32 | >32 | >32 | >32 | >32 | 1.18 |  | >32 |  |  |  |  |  |  | 4.7 |  | 
10 | CCCCCCCCCCCCCCCC(=O)N[C@@H](CCCNC(=N)N)C(=O)NCC(=O)N[C@@H](CO)C(=O)N[C@@H](CCCNC(=N)N)C(=O)N[C@@H](CO)C(=O)NCC(=O)N[C@@H](CCC(N)=O)C(=O)N[C@@H](CO)C(=O)N[C@@H](CO)C(=O)N[C@@H](CCCNC(=N)N)C(=O)NCC(=O)N[C@@H](CCC(=O)O)C(=O)N[C@@H](CCCNC(=N)N)C(=O)N[C@@H](CCCNC(=N)N)C(=O)O [Pal-HR-1-11-2H2R-14] (Palmitoyl-RGSRSGQSSRGERR-OH) | 8 (≈ 4.41 µM) | >32 | >32 | 4 (≈ 2.2 µM) | >32 | 8 (≈ 4.41 µM) |  |  | 8 (≈ 4.41 µM) |  |  |  |  |  |  |  |  | 
11 | CCCCCCCCCCCCCCCC(=O)NCC(=O)N[C@@H](CCCCN)C(=O)N[C@@H](CCCCN)C(=O)NCC(=O)NCC(=O)N[C@@H](CCCCN)C(=O)NCC(=O)NCC(=O)N[C@@H](CCCCN)C(=O)NCC(=O)N[C@@H](CCCCN)C(=O)NCC(=O)N[C@@H](CCCCN)C(=O)O [Pal-K-GR13] (Palmitoyl-GKKGGKGGKGKGK-OH; C-terminus assumed) |  |  |  |  |  |  | 0.59 |  |  | < 0.019 | 0.15 | >300 |  |  |  |  |  | 
12 | CCCCCCCCCCCCCCCC(=O)N[C@@H](CO)C(=O)N[C@@H](Cc1c[nH]cn1)C(=O)N[C@@H](Cc1c[nH]cn1)C(=O)N[C@@H](CCCNC(=N)N)C(=O)N[C@@H](Cc1c[nH]cn1)C(=O)N[C@@H](Cc1ccccc1)C(=O)N[C@@H](CCCNC(=N)N)C(=O)N[C@@H](CO)C(=O)N[C@@H](Cc1c[nH]cn1)C(=O)N[C@@H](CCC(N)=O)C(=O)N[C@@H](CS)C(=O)N[C@@H](CCCNC(=N)N)C(=O)N[C@@H](CCCNC(=N)N)C(=O)O [Pal-LCE-3C55-67] (Palmitoyl-SHHRHFRSHQCRR-OH) | 32 (≈ 16.1 µM) | >32 | >32 | >32 | 16 (≈ 8.07 µM) | 1 (≈ 0.504 µM) |  |  | >32 |  |  |  |  |  |  |  |  | 
13 | CCCCCCCCCCCCCCCC(=O)NCC(=O)N[C@@H](CCCN)C(=O)N[C@@H](CCCN)C(=O)NCC(=O)NCC(=O)N[C@@H](CCCN)C(=O)NCC(=O)NCC(=O)N[C@@H](CCCN)C(=O)NCC(=O)N[C@@H](CCCN)C(=O)NCC(=O)N[C@@H](CCCN)C(=O)O [Pal-Orn-GR13] (Palmitoyl-G[Orn][Orn]GG[Orn]GG[Orn]G[Orn]G[Orn]-OH; C-terminus assumed) |  |  |  |  |  |  | 0.15 |  |  | 0.075 | 0.3 | 18.75 |  |  |  |  |  | 
14 | GRRGSGGGRSSSRGGRGSGSGR [HR 1-18,4H-4R/L-G] |  |  |  |  |  |  | > 300 |  |  |  | 0.15 | > 300 |  |  |  |  |  | 
15 | HAHSGHGQSTQRGSRTAGR [FLG-22082-2100] | >32 | >32 | >32 | >32 | >32 | >32 |  |  | >32 | 0.038 |  |  |  |  |  |  |  | 
16 | LRHGSGLGHSSSHGQHGSGSGR [HR 1-18-Leu] |  |  |  |  |  |  | 300 |  |  | 4.7 |  | > 300 |  |  |  |  |  | 
17 | SRRSSSLSRSSSRSSRSSSSSR [HR 1-18,4H-4R/9G-9S] |  |  |  |  |  |  | 150 |  |  | 0.15 | 1.18 | > 300 |  |  |  |  | 75 | > 300
